Measured values published in PMC8511295 (European journal of medicinal chemistry, 2021).
Read-outs that look alike come from different tables or passages of the source.

Experiments:
[1] = test system: HIV-1 NL4–3-HXB2-Luc pseudotyped virus expressing Env of the lab-adapted HIV-1HXB-2 (CXCR4); assay type: cell-based; details: TZM-bl cells
[2] = test system: control pseudovirus MLV-GP/VSV-G/Luc; test: microbe, parasite or virus in culture; assay type: cell-based
[3] = biological target: HIV-1 Reverse Transcriptase (RT) (Human immunodeficiency virus type 1 group M subtype B, UniProt P04585); test: Colorimetric Reverse Transcriptase Assay; assay type: biochemical
[4] = test system: HIV-1WEAUd15.410.5017 (NIH # 11578), dual-tropic (CCR5/CXCR4) clinical isolate of subtype B; assay type: cell-based
in vitro = details: human
[5] = test system: recombinant CD4-dependent HIV-1ADA virus in CD4-negative Cf2Th-CCR5 cells; assay type: cell-based; details: escalating concentrations

## Cl.Cl.NC[C@@H](NC(=O)CNCc1ccc(Cl)cc1)c1ncc(CO)s1 [4(fR), N-(2-amino-1-(5-(hydroxymethyl)thiazol-2-yl)ethyl)-2-((4-chlorobenzyl)amino)acetamide dihydrochloride]
[1]
  antiviral activity against HIV-1HXB-2, in words: None of these derivatives showed any appreciable antiviral activity

## Cl.Cl.NC[C@H](NC(=O)CNCc1ccc(Cl)cc1)c1ncc(CO)s1 [4(fS), N-(2-amino-1-(5-(hydroxymethyl)thiazol-2-yl)ethyl)-2-((4-chlorobenzyl)amino)acetamide dihydrochloride]
[1]
  antiviral activity against HIV-1HXB-2, in words: None of these derivatives showed any appreciable antiviral activity

## NC[C@@H](NC(=O)c1ccc(C2CCCCC2)[nH]1)c1ncc(CO)s1 [6(fR), N-(2-amino-1-(5-(hydroxymethyl)thiazol-2-yl)ethyl)-5-cyclohexyl-1H-pyrrole-2-carboxamide]
[1]
  antiviral activity against HIV-1HXB-2, in words: poorly actives

## NC[C@H](NC(=O)c1ccc(C2CCCCC2)[nH]1)c1ncc(CO)s1 [6(fS), N-(2-amino-1-(5-(hydroxymethyl)thiazol-2-yl)ethyl)-5-cyclohexyl-1H-pyrrole-2-carboxamide]
[1]
  antiviral activity against HIV-1HXB-2, in words: poorly actives

## NC[C@@H](NC(=O)c1ccc(OCC2CCCCC2)cc1)c1ncc(CO)s1 [7(fR), N-(2-amino-1-(5-(hydroxymethyl)thiazol-2-yl)ethyl)-4-(cyclohexylmethoxy)benzamide]
[1]
  antiviral activity against HIV-1HXB-2, in words: poorly active

## NC[C@H](NC(=O)c1ccc(OCC2CCCCC2)cc1)c1ncc(CO)s1 [7(fS), N-(2-amino-1-(5-(hydroxymethyl)thiazol-2-yl)ethyl)-4-(cyclohexylmethoxy)benzamide]
[1]
  antiviral activity against HIV-1HXB-2, in words: poorly active

## NC[C@@H](NC(=O)c1ccc(NCC2CCCCC2)cc1)c1ncc(CO)s1 [8(fR), N-(2-amino-1-(5-(hydroxymethyl)thiazol-2-yl)ethyl)-4-((cyclohexylmethyl)amino)benzamide]
[1]
  antiviral activity against HIV-1HXB-2, in words: poorly active

## NC[C@H](NC(=O)c1ccc(NCC2CCCCC2)cc1)c1ncc(CO)s1 [8(fS), N-(2-amino-1-(5-(hydroxymethyl)thiazol-2-yl)ethyl)-4-((cyclohexylmethyl)amino)benzamide]
[1]
  antiviral activity against HIV-1HXB-2, in words: poorly active

## NC[C@@H](NC(=O)Cc1ccc(OCC2CCCCC2)cc1)c1ncc(CO)s1 [9(fR), N-(2-amino-1-(5-(hydroxymethyl)thiazol-2-yl)ethyl)-2-(4-(cyclohexylmethoxy)phenyl)acetamide]
[1]
  antiviral activity against HIV-1HXB-2, in words: no significant antiviral activity

## NC[C@H](NC(=O)Cc1ccc(OCC2CCCCC2)cc1)c1ncc(CO)s1 [9(fS), N-(2-amino-1-(5-(hydroxymethyl)thiazol-2-yl)ethyl)-2-(4-(cyclohexylmethoxy)phenyl)acetamide]
[1]
  antiviral activity against HIV-1HXB-2, in words: no significant antiviral activity

## NCC(NC(=O)c1cc2ccc(Cl)cc2[nH]1)c1nc(CO)cs1 [12(fR), N-(2-amino-1-(4-(hydroxymethyl)thiazol-2-yl)ethyl)-6-chloro-1H-indole-2-carboxamide]
[2]
  activity against control pseudovirus VSV-G, in words: poorly active against VSV-G
[2]; Pseudovirus, U87/CD4/CCR5, read-out: IC50 against VSV-G
  IC50: 15.7 ± 1 µM
[3]
  activity against HIV-1 RT, in words: no activity
[4]
  antiviral activity against the clinical isolate HIV-1WEAUd15.410.5017, in words: best antiviral activity
In vitro
  CC50: 83 to 84 µM

## NCC(NC(=O)c1cc2ccc(Cl)cc2[nH]1)c1nc(CO)cs1 [12(fS), N-(2-amino-1-(4-(hydroxymethyl)thiazol-2-yl)ethyl)-6-chloro-1H-indole-2-carboxamide]
[2]
  activity against control pseudovirus VSV-G, in words: poorly active against VSV-G
[2]; read-out: IC50 against VSV-G
  IC50: 20.5 ± 0.5 µM
[4]
  antiviral activity against the clinical isolate HIV-1WEAUd15.410.5017, in words: best antiviral activity

## NCC(NC(=O)c1ccc(-c2ccc(Cl)cc2)[nH]1)c1nccs1 [13(fR), N-(2-amino-1-(thiazol-2-yl)ethyl)-5-(4-chlorophenyl)-1H-pyrrole-2-carboxamide]
[2]
  activity against control pseudovirus VSV-G, in words: poorly active against VSV-G
[4]
  antiviral activity against the clinical isolate HIV-1WEAUd15.410.5017, in words: best antiviral activity

## NCC(NC(=O)c1ccc(-c2ccc(Cl)cc2)[nH]1)c1nccs1 [13(fS), N-(2-amino-1-(thiazol-2-yl)ethyl)-5-(4-chlorophenyl)-1H-pyrrole-2-carboxamide]
[2]
  activity against control pseudovirus VSV-G, in words: poorly active against VSV-G
[4]
  antiviral activity against the clinical isolate HIV-1WEAUd15.410.5017, in words: best antiviral activity

## O=C(N[C@H](CC1CCNCC1)c1nc(CO)cs1)c1ccc(-c2ccc(C(F)(F)F)cc2)[nH]1 [18(fR), N-(1-(4-(hydroxymethyl)thiazol-2-yl)-2-(piperidin-4-yl)ethyl)-5-(4-(trifluoromethyl)phenyl)-1H-pyrrole-2-carboxamide]
[1]
  antiviral activity against HIV-1HXB-2, in words: low antiviral activity

## O=C(N[C@@H](CC1CCNCC1)c1nc(CO)cs1)c1ccc(-c2ccc(C(F)(F)F)cc2)[nH]1 [18(fS), N-(1-(4-(hydroxymethyl)thiazol-2-yl)-2-(piperidin-4-yl)ethyl)-5-(4-(trifluoromethyl)phenyl)-1H-pyrrole-2-carboxamide]
[1]
  antiviral activity against HIV-1HXB-2, in words: low antiviral activity

## CC1(C)CC(NC(=O)C(=O)Nc2ccc(Cl)cc2)CC(C)(C)N1 [NBD-556, reference compound]
[5]
  relative virus infectivity (enhancement of infection), in words: enhanced the infection of the Cf2Th-CCR5 cells in a dose-dependent manner
[3]
  activity against HIV-1 RT, in words: no activity

## Cc1cc(-c2ccc(C(F)(F)F)cn2)[nH]c1C(=O)NC(CN)c1ncc(CO)s1 (stereo not shown) [NBD-14270]
[5]
  relative virus infectivity (enhancement of infection), in words: did not enhance HIV-1 infectivity

## NCC(NC(=O)C(=O)NCc1ccc(Cl)c(F)c1)c1ncc(CO)s1 (stereo not shown) [compound 3, N’-[2-amino-1-[5-(hydroxymethyl)thiazol-2-yl]ethyl]-N-[(4-chloro-3-fluorophenyl)methyl]oxamide]
[1]
  antiviral activity against HIV-1HXB-2, in words: failed to show any significant antiviral activity

## Cc1nc(C(CN)NC(=O)NC(=O)c2ccc(Cl)cc2)sc1CO (stereo not shown) [compound 5, N-((2-amino-1-(5-(hydroxymethyl)-4-methylthiazol-2-yl)ethyl)carbamoyl)-4-chlorobenzamide]
[1]
  antiviral activity against HIV-1HXB-2, in words: failed to show any significant antiviral activity

## Cc1nc(C(CN)NC(=O)c2cc3ccccc3[nH]2)sc1CO (stereo not shown) [compound 10, N-(2-amino-1-(5-(hydroxymethyl)-4-methylthiazol-2-yl)ethyl)-1H-indole-2-carboxamide]
[1]
  antiviral activity against HIV-1HXB-2, in words: virtually inactive

## Cc1nc(C(CN)NC(=O)c2cc3cc(Cl)ccc3[nH]2)sc1CO (stereo not shown) [compound 11, N-(2-amino-1-(5-(hydroxymethyl)-4-methylthiazol-2-yl)ethyl)-5-chloro-1H-indole-2-carboxamide]
[1]
  antiviral activity against HIV-1HXB-2, in words: virtually inactive

## NCC(NC(=O)c1cc2ccc(Cl)cc2[nH]1)c1nc(CO)cs1 (stereo not shown) [compound 12, N-(2-amino-1-(4-(hydroxymethyl)thiazol-2-yl)ethyl)-6-chloro-1H-indole-2-carboxamide]
[1]
  antiviral activity against HIV-1HXB-2, in words: moderate activity

## Cl.NCCNC(=O)c1ccc(-c2ccc(Cl)c(F)c2)[nH]1 [compound 14, N-(2-aminoethyl)-5-(4-chloro-3-fluorophenyl)-1H-pyrrole-2-carboxamide hydrochloride]
[1]
  antiviral activity against HIV-1HXB-2, in words: low μM range

## O=C(NC1(c2nc(CO)cs2)CCNCC1)c1ccc(-c2ccc(C(F)(F)F)cc2)[nH]1 [compound 17, N-(4-(4-(hydroxymethyl)thiazol-2-yl)piperidin-4-yl)-5-(4-(trifluoromethyl)phenyl)-1H-pyrrole-2-carboxamide]
[4]
  antiviral activity against the clinical isolate HIV-1WEAUd15.410.5017, in words: best antiviral activity
